In PMC10398685 (ACS Omega, 2023):

Experiments:
[1] = molecular target: T1, SARS-CoV-2 nsp10-nsp16 complex (Severe acute respiratory syndrome coronavirus 2, UniProt P0DTD1); format: biochemical; conditions: tested at 1 μM by SPA assay, duplicate
T1 construct: Nsp10-nsp16 reactions contained 100 nM nsp10-nsp16 complex

Calu-3 cells = test: Steady-state intracellular uptake in Calu-3 cells; format: in vitro ADME; conditions: Calu-3, 60 min incubation, 50 μM at t = 0
From the text: (§1) While an enzymatic MTase assay represents a valuable fast screening platform providing the information that can be directly used for SAR analyses, it is not fully predictive for the compounds’ activity in whole cells. In order to verify the ability of the compounds to reach the intracellular compartment, we measured the steady-state accumulation of representative compounds in intact CCRF-CEM, VERO-E6, and Calu-3 cells (Tables 3 and S2). […] Compound 12q was almost completely cleared from the medium after 60 min incubation with the cells rendering it among the most permeable compounds of the series based on Kp values. It should be noted that the apparent intracellular concentration of the compounds may be biased by their potential metabolism. Therefore, we decided to subject the selected derivatives to in vitro stability studies. […]
(§2) methyltransferase activity as counts per minute (CPM). The CPM measurements in the absence of compound (5% DMSO) for each enzyme was defined as 100% activity.
(§3) 3.3. Intracellular Uptake
(§4) Steady-state cellular uptake was measured in CCRF-CEM cells (ATCC, CRL-119), VERO-E6 cells (ATCC, CRL-1586) and Calu-3 cells (HTB-55), respectively. Suspension cells (CCRF-CEM) were treated as follows: Prior to the experiment, cells were washed by centrifugation (250 x g, 5 min) in prewarmed (37 °C) serum-free RPMI medium and resuspended in the same vehicle to a concentration of 2 x 10^7 cells per mL. The cell suspension was distributed into the microtubes in 500 μL aliquots (10^7 cells), and the uptake process was initiated by the addition of 2.5 μL of the 10 mM DMSO solutions of the compounds (50 μM final conc.). Samples were incubated for 60 min at 37 °C in a CO 2 incubator using a rotary stirrer. The uptake was terminated by centrifugation at 900 x g for 5 min, at +4 °C. The medium was stored at −20 °C for later analysis of the extracellular concentration of the compounds. The cells were washed two times with 1 mL PBS (900 x g, 5 min, +4 °C), and also stored at −20 °C for subsequent analysis of the intracellular concentration of the compounds. At the day of the analysis, both media and the pelleted cells were quickly thawed. The cell pellets were extracted with 200 μL of ice-cold methanol by vigorous shaking, further diluted 1:1 with water and centrifuged at 20 000 x g for 10 min. As for the media samples, 10 μL aliquots were extracted with 990 μL of 50% methanol. The samples were then transferred to ECHO® -compatible 384-well plates and the amount of analytes were quantified by the ECHO -MS® System (Sciex) where acoustic droplet ejection module is coupled with Sciex 6500® triple quadrupole mass spectrometer operating with an electrospray ionization source. Spectrometer was run in the multiple reaction monitoring (MRM) mode. When necessary, the processed samples were further diluted in 50% methanol to fit in the calibration range. Calibration curves of the compounds in 50% methanol were measured alongside the samples within the same run. The ra tio between the total compound concentration in the cells and compound concentration in the medium (K p) at t=60 min was calculated according to: Kp = (Acell / Vcell) / Cmedium, where Acell is the amount of compound in the cell lysate, Vcell is the CCRF-CEM cell volume (3.38 μL/10^7 cells)16 and Cmedium is the compound concentration in the medium sample after correcting for sample dilution. Experiments were performed in duplicates.
(§5) For adherent cells (Vero E6 and Calu-3), the workflow was modified as follows: Cells were seeded on 6-well plates at a concentration of […] and 8.2 x 10^5 cells/well for Vero E6 and Calu-3, respectively, in 3 mL of serum-free culture media. The cells were left to attach overnight, the medium was then aspirated and replenished with 2 mL of fresh media containing the compounds (50 µM final conc). After 60 min at 37 °C the media was aspirated and the cells were washed twice with 1 mL of PBS. Then, 1 mL of fresh PBS was added and the cells were […]

Caco-2 monolayers = test: Caco-2 permeability assay; format: in vitro ADME; conditions: Caco-2, 5 µM, pH 7.4/7.4, 3 h
Experimental: 3.6. Caco-2 permeability assay
Transepithelial bi-directional transport of tested compounds (5 µM, pH 7.4/7.4) across the Caco-2 monolayers was studied using the BD BioCoat HTS Caco -2 assay system (BD Biosciences, Bedford, MA) as described in detail elsewhere.17 Aliquots were collected from the donor and acceptor compartment at the end of transport period (3 h), integrity of monolayers were verified using Lucifer Yellow dye and the compounds were quantified using LC-MS/MS (Sciex 6500® triple quadrupole). The apparent permeability coefficient (Papp) was calculated from the following equation: Papp = (dQ / dt) / C0 * A, where dQ/dt is the rate of absorption of the drug across the cells, C0 is the donor compartment concentration at time zero, and A is the area of the monolayer. Efflux ratio was expressed as (Papp B-A) / (Papp A-B). Recovery (%) was determined as (total compound mass in donor and receiver compartments at the end of the incubation / initial compound mass in the donor compartment) x 100.

[2] = Steady-state intracellular uptake in Calu-3 cells; format: in vitro ADME; conditions: human, Calu-3 cells; Calu-3, 60 min incubation, 50 μM at t = 0; read-out: Kp (intracellular accumulation ratio IC/EC) (converted)
From the text: as §1, §2, §3, §4, §5

Compound	Selectivity against SARS-CoV-2 nsp10-nsp16 complex [1]	EC (extracellular concentration in the media at t = 60 min) ± sd (Calu-3 cells) [µM]	IC (intracellular concentration in the cells at t = 60 min) ± sd (Calu-3 cells)	Papp B-A (Caco-2 monolayers)	Kp at 1 h, 50 µM [2]
COc1ccc(S(=O)(=O)N(C)C[C@H]2O[C@@H](n3cc(C#Cc4cnc5ccccc5c4)c4c(N)ncnc43)[C@H](O)[C@@H]2O)cc1C#N [Compound 12q]	selective	5.6 ± 5.7	89,640 ± 6514 μM	0.0 ± 0.0 x10-6 (cm/s)	
COc1ccc(S(=O)(=O)N(C)C[C@H]2O[C@@H](n3cc(C#Cc4ccc(C(N)=O)cc4)c4c(N)ncnc43)[C@H](O)[C@@H]2O)cc1C#N [Compound 12r]	selective	4.0 ± 0.2			1250
CCN(C[C@H]1O[C@@H](n2cc(C#Cc3cnc4ccccc4c3)c3c(N)ncnc32)[C@H](O)[C@@H]1O)S(=O)(=O)c1ccc(OC)c(C#N)c1 [Compound 12e]		5 ± 4			1770
COc1ccc(S(=O)(=O)N(C)C[C@H]2O[C@@H](n3cc(C#Cc4cccnc4)c4c(N)ncnc43)[C@H](O)[C@@H]2O)cc1C#N [Compound 12s]	selective	14.7 ± 0.8			106
